The values that follow are results of earlier work, collected in patent publication US20230330191A1, “METHODS OF STIMULATING BONE GROWTH WITH ABALOPARATIDE AND DENOSUMAB” (Radius Health, Inc., priority 2020, published 2023).

The subject of data set [1] is ovariectomy-induced osteopenia animal models.
The subject of the next data set is RANKL:OPG ratio. The following applies: Makino, CTI 2018.
For data set [2] the following is noted: in vivo.
For data set [3] the following is noted: in vivo. The source holds these as a separate data set.

On to “[Glu22,25, Leu23,28,31, Aib29, Lys26,30]hPTHrP(1-34)NH2 [abaloparatide]”, for which the “bone loss (bone anabolic activity)” value in data set [1] is on record as “complete reversal of bone loss”. Also, in the data set on RANKL:OPG ratio, the “RANKL and OPG expression, RANKL:OPG ratio” value is “upregulates RANKL and reduces OPG, increasing the RANKL:OPG ratio”. In data set [2], the “increases in BMD compared with cathepsin K inhibitor drugs or PTH-like drugs such as teriparatide” value was “substantially faster and greater”; the “potential to induce hypercalcemia compared to teriparatide” value was “lower potential to induce hypercalcemia”. Also, in data set [3], the “incidence of the most common adverse reactions (hypercalciuria, dizziness, nausea, headache, palpitations, fatigue, upper abdominal pain, vertigo)” value is given as above 2%.

On to `CC[C@H](C)[C@H](NC(=O)[C@H](CCC(=O)O)NC(=O)[C@H](CO)NC(=O)[C@@H](NC(=O)[C@@H](N)CO)C(C)C)C(=O)N[C@@H](CCC(N)=O)C(=O)N[C@@H](CC(C)C)C(=O)N[C@@H](CCSC)C(=O)N[C@@H](Cc1cnc[nH]1)C(=O)N[C@@H](CC(N)=O)C(=O)N[C@@H](CC(C)C)C(=O)NCC(=O)N[C@@H](CCCCN)C(=O)N[C@@H](Cc1cnc[nH]1)C(=O)N[C@@H](CC(C)C)C(=O)N[C@@H](CC(N)=O)C(=O)N[C@@H](CO)C(=O)N[C@@H](CCSC)C(=O)N[C@@H](CCC(=O)O)C(=O)N[C@@H](CCCN=C(N)N)C(=O)N[C@H](C(=O)N[C@@H](CCC(=O)O)C(=O)N[C@@H](Cc1c[nH]c2ccccc12)C(=O)N[C@@H](CC(C)C)C(=O)N[C@@H](CCCN=C(N)N)C(=O)N[C@@H](CCCCN)C(=O)N[C@@H](CCCCN)C(=O)N[C@@H](CC(C)C)C(=O)N[C@@H](CCC(N)=O)C(=O)N[C@@H](CC(=O)O)C(=O)N[C@H](C(=O)N[C@@H](Cc1cnc[nH]1)C(=O)N[C@@H](CC(N)=O)C(=O)N[C@@H](Cc1ccccc1)C(=O)O)C(C)C)C(C)C` [teriparatide], for which the “total hip BMD” value in the data set with women (2 years of teriparatide after 2 years of denosumab, versus mean BMD at end of denosumab treatment (Leder, Lancet 2015)) is reported as “remains below the mean BMD”. For the same molecule, in the data set on women (switching from denosumab to teriparatide), the “BMD in the hip and femoral neck” value is recorded as “substantial BMD loss”.

In the case of “Denosumab: fully human monoclonal IgG antibody with affinity and specificity for human receptor activator of nuclear factor kappa-B ligand (RANKL)”, the “effects of denosumab withdrawal on bone” value in the data set with women (after withdrawal (Cummings JBMR 2017)) is “dramatic increased bone remodeling, rapid prominent bone loss, and multiple vertebral fractures”.
